Measurements from the supplement of paper PMC10307832.

Assays:
Test in all cases: relative viability (nuclei count vs DMSO), 5 days (fraction); higher = more cells survive
RAF265 + Pictilisib = compound: Cn1c(Nc2ccc(C(F)(F)F)cc2)nc2cc(Oc3ccnc(-c4ncc(C(F)(F)F)[nH]4)c3)ccc21 [RAF265] + CS(=O)(=O)N1CCN(Cc2cc3nc(-c4cccc5[nH]ncc45)nc(N4CCOCC4)c3s2)CC1 [Pictilisib] (partner 1 µM)
Procedure, shortened: (§1)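 Lung cancer cell lines, seeded in 1536-well plates, were treated the following day by pin tool with a single drug or with five library-drug doses (not always all listed) in √10 steps on top of a fixed anchor-drug dose. Cells were fixed and nuclei stained in one step after 5 days, and nuclei were counted. Relative viability is the nuclei count for treated wells divided by that for vehicle wells, reported as medians of duplicate plates.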

IPA-3 + Dasatinib = compound: C1=CC=C2C(=C1)C=CC(=C2SSC3=C(C=CC4=CC=CC=C43)O)O [IPA-3] + Cc1nc(Nc2ncc(C(=O)Nc3c(C)cccc3Cl)s2)cc(N2CCN(CCO)CC2)n1 [Dasatinib] (partner 0.075 µM)
Procedure, shortened: as §1

IPA-3 + Decitabine = compound: C1=CC=C2C(=C1)C=CC(=C2SSC3=C(C=CC4=CC=CC=C43)O)O [IPA-3] + Nc1ncn([C@H]2C[C@H](O)[C@@H](CO)O2)c(=O)n1 [Decitabine] (partner 2 µM)
Procedure, shortened: as §1

Doramapimod + Navitoclax = compound: Cc1ccc(-n2nc(C(C)(C)C)cc2NC(=O)Nc2ccc(OCCN3CCOCC3)c3ccccc23)cc1 [Doramapimod] + CC1(C)CCC(c2ccc(Cl)cc2)=C(CN2CCN(c3ccc(C(=O)NS(=O)(=O)c4ccc(N[C@H](CCN5CCOCC5)CSc5ccccc5)c(S(=O)(=O)C(F)(F)F)c4)cc3)CC2)C1 [Navitoclax] (partner 0.5 µM)
Procedure, shortened: as §1

UMC-11 was tested, and the relative viability (RAF265 + Pictilisib; first compound 0.01 µM) was 0.782, the relative viability (RAF265 + Pictilisib; first compound 0.03162 µM) was 0.747 and the relative viability (RAF265 + Pictilisib; first compound 0.1 µM) was 0.88. The relative viability (RAF265 + Pictilisib; first compound 0.3162 µM) was 0.822, the relative viability (RAF265 + Pictilisib; first compound 1 µM) was 0.644 and the relative viability (IPA-3 + Dasatinib; first compound 0.2 µM) was 0.605. It also gave a relative viability (IPA-3 + Dasatinib; first compound 0.6325 µM) of 0.421, a relative viability (IPA-3 + Dasatinib; first compound 2 µM) of 0.483 and a relative viability (IPA-3 + Dasatinib; first compound 6.325 µM) of 0.446. It also gave a relative viability (IPA-3 + Dasatinib; first compound 20 µM) of 0.489, a relative viability (IPA-3 + Decitabine; first compound 0.2 µM) of 0.682 and a relative viability (IPA-3 + Decitabine; first compound 0.6325 µM) of 0.759. The relative viability (IPA-3 + Decitabine; first compound 2 µM) was 0.568, the relative viability (IPA-3 + Decitabine; first compound 6.325 µM) was 0.362 and the relative viability (IPA-3 + Decitabine; first compound 20 µM) was 0.594. It also gave a relative viability (Doramapimod + Navitoclax; first compound 0.02 µM) of 0.304, a relative viability (Doramapimod + Navitoclax; first compound 0.06325 µM) of 0.275 and a relative viability (Doramapimod + Navitoclax; first compound 0.2 µM) of 0.323. The relative viability (Doramapimod + Navitoclax; first compound 0.6325 µM) was 0.344 and the relative viability (Doramapimod + Navitoclax; first compound 2 µM) was 0.271.
